As usually defined, the Kd is the concentration at which binding is half-saturated. The term IC50 denotes the concentration that inhibits the measured activity by half.

The values below come from article PMC13053910, “Covalent Protein Inhibitors via Tyrosine and Tryptophan Conjugation with Cyclic Imine Mannich Electrophiles” (Angewandte Chemie (International Ed. in English), 2026).

Non-standard residues stand in square brackets, D forms with d. Residues, ends and D or L forms follow the SMILES beside them. *: point of attachment. Benzoyl(4-OPh) = O=C(c1ccc(Oc2ccccc2)cc1)*; Lys(Et2) = CCN(CC)CCCC[C@H](N)C(=O)O; Gly(cPent) = N[C@H](C(=O)O)C1CCCC1

Data set [1] has as its target CBX8 ChD. On the set-up: method as in PMID 31755685, PMID 29309209. To be noted: prior work ref 47, 48; cited from earlier work.
Data set [2] deals with HOXA9 gene expression in THP1 cells. The data set is described as follows: qRT-PCR analysis of HOXA9 gene expression in THP1 cells. As to conditions: 48 h. Type of data set: cell-based, Human. Here is the method: Figure 7 Cellular activity of covalent, cyclic imine inhibitors to CBX8. a) qRT‐PCR analysis of HOXA9 gene expression in THP1 cells after 48 h of compound treatment at the indicated dose. N = 3. Error bars represent SD. Statistical significance was calculated using Student's t‐test. ** = p < 0.01, **** = p < 0.0001, b) qRT‐PCR analysis of HOXA9 gene expression in THP1 cells treated with increasing doses of compound for 48 h. N = 3. Error bars represent SD.
Figure S24. Cellular activity of covalent, cyclic imine inhibitors to CBX8. qRT-PCR analysis of HOXA9 gene expression in THP1 cells after 48 h of compound treatment at the indicated dose. N = 3. Error bars represent s.d. Statistical significance determined by Student’s T test. * = p <0.05, ** = p < 0.01, *** = p < 0.001, **** = p < 0.0001.
2.4 Cell Culture Cell line, Media and Culture Conditions HEK293T cells were cultured in Dubecco’s Modified Essential Media (DMEM), 10% fetal bovine serum (FBS, JR Scientific), 1% glutagro (Corning), 1% penicillin/streptomycin (Corning), 1% sodium pyruvate (Corning). Human THP1 cells were cultured in RPMI (Gibco), 10% FBS (J R Scientific), 1% Sodium pyruvate (Invitrogen), 1% Pen/Strep (Invitrogen), 1% Glutamax (Thermo Scientific), 0.1% 2-mercaptoethanol.
Cells were harvested after 48 h for RNA extraction. […] SYBR Green Mastermix (Thermo Scientific) was used for quantitative PCR. […]

The conditions of data set [3]: pH 7 and 37 °C ref 39; cited from earlier work.
The nature of data set [4]: Reaction of cyclic imine Mannich or sulfur fluoride electrophiles with Ac-Tyr-NHMe (HPLC, LC/MS). Type of data set: physicochemical. As to conditions: PBS pH 7, 37 °C. Here is the method:
To identify an appropriate warhead, we synthesized or purchased a collection of cyclic imines and incubated them with N‐acetyl‐L‐tyrosine methylamide (Ac‐Tyr‐NHMe) in PBS pH 7 at 37 °C (Table 1). The reactivity was quantified by UV integration on HPLC with LC/MS confirmation of product identity (Figure S1). […] The hydrolysis kinetics of imine 2 were characterized at pD 6 and 7.5 by NMR (Figure S3). […] The Mannich reaction mechanism involves a charged iminium intermediate, and the reaction is frequently catalyzed by Bronsted acids.^[ [36], [37] ^]
Figure 2 Second‐order rate constants for select cyclic imines and a sulfonyl fluoride with aromatic nucleophiles. Reactions were conducted under pseudo‐first‐order conditions with an excess of one reactant, as indicated. The reduction in the concentration of the limiting reactant was measured at various time points by HPLC analysis.
Figure S2: Second order rate constant determination. Reaction of (A) imine 1 (5 mM) with N-Ac-Tyr-NHMe (100 mM) at 37 °C or (B) at R.T. (C) imine 2 (5 mM) with N-Ac-Tyr-NHMe (100 mM) at 37 °C (D) imine 1 (5 mM) with indole-3-butyrate (100 mM) at 37 °C (E) imine 1 (10 mM) with 1 mM 1H-pyrrole-1-propionate (F) iminium 5 (5 mM) with N-Ac-Tyr-NHMe (100 mM) at 37 °C (G) imine 4 (5 mM) with N-Ac-Tyr-NHMe (100 mM) at 37 °C. (H) imine 11 (5 mM) with N-Ac-Tyr-NHMe (100 mM) at 37 °C. (I) imine 13 (5 mM) with N-Ac-Tyr-NHMe (100 mM) at 37 °C.
5.1 General procedure for determination of second order rate constants N-acetyl-l-tyrosine methyl amide (Ac-Tyr-NHMe) (100 mM) was incubated with 5 mM imine 1 in PBS (pH 7) at 37 °C or R.T..

For the compound `CC[C@H](C)[C@H](NC(=O)[C@@H](NC(=O)c1ccc(Oc2ccccc2)cc1)C1CCCC1)C(=O)N[C@@H](CCCCN(CC)CC)C(=O)N[C@@H](CO)C(N)=O` [SW2_110A, reference compound] ({Benzoyl(4-OPh)}-[Gly(cPent)]I[Lys(Et2)]S-NH2), in data set [1], the dissociation constant Kd is 800 nM. In addition, the IC50 in data set [2] was above 22000 nM.

On to `NCCc1ccc(S(=O)(=O)F)cc1` [compound 13, 4‐(2‐aminoethyl)‐benzenesulfonyl fluoride, reference compound], for which, in data set [3], the “hydrolysis half‐life” value was 6 h. For the same compound, the “reactivity (t1/2)” value in data set [4] (electrophile 5 mM, N‐acetyl‐l‐tyrosine methyl amide 100 mM) is recorded as 0.28 ± 0.02 h. In data set [4] (pseudo‐first‐order conditions), the “second‐order rate constant k2 with N‐Ac‐Tyr‐NHMe” value worked out at 0.0069 M⁻¹ s⁻¹.
